Assay results published in patent US20240277693A1, “A PHARMACEUTICAL PRODUCT CONTAINING TASQUINIMOD AND A METHOD FOR ASSESSING THE PURITY OF SAID PRODUCT” (ACTIVE BIOTECH AB, priority 2021, published 2024).

Tests used:
Type in all cases: physicochemical
[1] = Stability testing of capsules at 25° C./60% RH in water impermeable blister pack
Excerpt: (§1) In some embodiments, the method disclosed herein comprises storing (keeping) a sample of the pharmaceutical product for a period of time, preferably under selected conditions of temperature and humidity. The amount (or concentration) of tasquinimod and of at least one of compounds I, II, III and IV in the sample may preferably be determined at the beginning or before the storage period and at the end of the storage period. The selected storage conditions may include a temperature in the range of, for example, 20° C. to 40° C., and a relative humidity in the surrounding atmosphere in the range of, for example, 30% to 75%; e.g. 25° C. and 60% RH, or 30° C. and 65% RH, or 35° C. and 70% RH, or 40° C. and 75% RH. The storage period may extend over a time period in the range of, for example, several weeks to several years. For example, the stability testing period (“storage period”) may be 2 weeks, 3 weeks, 1 month, 2 months, 3 months, 4 months, 5 months, 6 months, 9 months, 1 year, 18 months, 2 years, 3 years, 4 years or even 5 years or longer. A shorter storage period may be selected by use of higher storage temperature and/or higher relative humidity (RH). The total amount of a tasquinimod decomposition product in the sample at the end of the storage period may be determined by, for example, HPLC.
The batch of capsules manufactured in Example 19 was assessed by determining the amount of tasquinimod and the amount of each one of compounds I, II, III and IV in a sample of the capsules at the end of a 3-month stability testing, whereby the criterion for approving the batch was that the capsules of the sample, at the end of the 3-month stability testing, contain a total amount of compounds I-IV of not more than 5.0% w/w, relative to the amount of tasquinimod in the capsules. The stability testing consisted of keeping the capsules, in a water impermeable blister pack, at 25° C./60% RH. At the end of the stability testing, the capsules contained 0.06% w/w of compound I, less than 0.05% w/w of compound II, 0.10% of compound III and less than 0.05% w/w of compound IV, relative to the amount of tasquinimod (determined to be 0.246 mg/capsule), viz. in total less than 0.26% w/w of compounds I-IV relative to the amount of tasquinimod. Therefore, according to the selected criterion for approval, the batch of capsules was determined to be suitable for distribution.
(§2) The obtained batch of capsules was subjected to multiple assessments, viz. a first assessment comprising determining the amount of tasquinimod and the amount of compounds I, II, III and IV in a sample of the capsules directly after manufacturing, whereby the selected criterion for approving the batch for distribution was that the capsules of the sample, in a water impermeable blister pack, contain not more than in total 5% w/w of compounds I-IV relative to the amount of tasquinimod, followed by eight further, independent assessments, by determining the amount of tasquinimod and the amount of each one of compounds I, II, III and IV in a sample of the capsules at the end of a period of stability testing (by keeping the capsules, in a water impermeable blister pack, at 25° C./60% RH) of 3, 6, 9, 12, 18, 24, 36 and 48 months, respectively, whereby each time the criterion for approving the batch was that the capsules of the sample, at the end of each period of stability testing, contain a total amount of compounds I-IV of not more than 5.0% w/w, relative to the amount of tasquinimod in the capsules.

[2] = Assessment of capsules after manufacture: amount of tasquinimod and of decomposition products; conditions: 0 months (after manufacturing)
Excerpt: as §1
The obtained batch of capsules was assessed by determining the amount of tasquinimod and the amount of compound III in a sample of the capsules. The selected criterion for approving the batch was that the capsules of the sample contain not more than 1.0% w/w of compound III relative to the amount of tasquinimod. […] Therefore, according to the selected criterion for approval, the batch of capsules was determined to be suitable for distribution.
The obtained batch of capsules was assessed by determining the amount of tasquinimod and the amount of compounds I, II, III and IV in a sample of the capsules. The selected criterion for approving the batch was that the capsules of the sample contain not more than in total 5% w/w of compounds I-IV relative to the amount of tasquinimod. […] Therefore, according to the selected criterion for approval, the batch of capsules was determined to be suitable for distribution.
as §2

[3] = Drug product stability studies (general observations)
Excerpt: In a drug product, compound I is formed with compound II from hydrolysis of tasquinimod. […] Compound II is further decarboxylated to form compound III.
Compound III is the decarboxylated species formed from the degradation of compound II.
The mechanism for formation of compound IV in a drug product is unknown.

[4] = 0.25 mg capsules of Example 19, 18 months
[5] = 0.25 mg capsules of Example 19, 24 months
[6] = 0.25 mg capsules of Example 19, 36 months
[7] = 0.25 mg capsules of Example 19, 48 months
[8] = 0.5 mg capsules of Example 28, 3 months
[9] = 0.5 mg capsules of Example 28, 6 months
[10] = 0.5 mg capsules of Example 28, 9 months
[11] = 0.5 mg capsules of Example 28, 12 months
[12] = 0.5 mg capsules of Example 28, 18 months
[13] = 0.5 mg capsules of Example 28, 24 months
[14] = 0.5 mg capsules of Example 28, 36 months
[15] = 0.5 mg capsules of Example 28, 48 months
[16] = 1.0 mg capsules of Example 29, 3 months
[17] = 1.0 mg capsules of Example 29, 6 months
[18] = 1.0 mg capsules of Example 29, 9 months
[19] = 1.0 mg capsules of Example 29, 12 months
[20] = 1.0 mg capsules of Example 29, 18 months
[21] = 1.0 mg capsules of Example 29, 24 months
[22] = 1.0 mg capsules of Example 29, 36 months
[23] = 1.0 mg capsules of Example 29, 48 months

SMILES	amount of decomposition product (each of compounds I-IV) in capsules, relative to the amount of tasquinimod [1, 4] [% w/w]	amount of decomposition product (each of compounds I-IV) in capsules, relative to the amount of tasquinimod [1, 5] [% w/w]	amount of decomposition product (each of compounds I-IV) in capsules, relative to the amount of tasquinimod [1, 6] [% w/w]	amount of decomposition product (each of compounds I-IV) in capsules, relative to the amount of tasquinimod [1, 7] [% w/w]	Decomposition products (% w/w), relative to the amount of tasquinimod in capsule [1, 8] [% w/w]	Decomposition products (% w/w), relative to the amount of tasquinimod in capsule [1, 9] [% w/w]	Decomposition products (% w/w), relative to the amount of tasquinimod in capsule [1, 10] [% w/w]	Decomposition products (% w/w), relative to the amount of tasquinimod in capsule [1, 11] [% w/w]	Decomposition products (% w/w), relative to the amount of tasquinimod in capsule [1, 12] [% w/w]	Decomposition products (% w/w), relative to the amount of tasquinimod in capsule [1, 13] [% w/w]	Decomposition products (% w/w), relative to the amount of tasquinimod in capsule [1, 14] [% w/w]	Decomposition products (% w/w), relative to the amount of tasquinimod in capsule [1, 15] [% w/w]	Decomposition products (% w/w), relative to the amount of tasquinimod in capsule [1, 16] [% w/w]	Decomposition products (% w/w), relative to the amount of tasquinimod in capsule [1, 17] [% w/w]	Decomposition products (% w/w), relative to the amount of tasquinimod in capsule [1, 18] [% w/w]	Decomposition products (% w/w), relative to the amount of tasquinimod in capsule [1, 19] [% w/w]	Decomposition products (% w/w), relative to the amount of tasquinimod in capsule [1, 20] [% w/w]	Decomposition products (% w/w), relative to the amount of tasquinimod in capsule [1, 21] [% w/w]	Decomposition products (% w/w), relative to the amount of tasquinimod in capsule [1, 22] [% w/w]	Decomposition products (% w/w), relative to the amount of tasquinimod in capsule [1, 23] [% w/w]	also measured
COc1cccc2c1c(O)c(Cc1c(O)c3c(OC)cccc3n(C)c1=O)c(=O)n2C [Compound IV, 3,3′-methylenebis(4-hydroxy-5-methoxy-1-methylquinolin-2(1H)-one)]	0.07	0.10	0.15	0.19	<0.05	<0.05	<0.05	<0.05	<0.05	0.06	0.09	0.11	<0.05	<0.05	<0.05	<0.05	<0.05	<0.05	<0.05	<0.05	Decomposition products (% w/w), relative to the amount of tasquinimod in capsule ([2]; 0.5 mg capsules of Example 28): <0.05 % w/w; Decomposition products (% w/w), relative to the amount of tasquinimod in capsule ([2]; 1.0 mg capsules of Example 29): <0.05 % w/w; change of the amount of the compound in tasquinimod drug product on storage [3]: increase under accelerated conditions
CNc1ccc(C(F)(F)F)cc1 [Compound I, N-methyl-4-(trifluoromethyl)aniline]	0.10	0.13	0.16	0.16	<0.05	0.05	0.06	0.07	0.06	0.07	0.07	0.08	<0.05	<0.05	<0.05	<0.05	<0.05	<0.05	<0.05	<0.05	amount of decomposition product (each of compounds I-IV) in capsules, relative to the amount of tasquinimod ([1]; 0.25 mg capsules of Example 19, 3 months): 0.06 % w/w; amount of decomposition product (each of compounds I-IV) in capsules, relative to the amount of tasquinimod ([1]; 0.25 mg capsules of Example 19, 6 months): 0.08 % w/w; amount of decomposition product (each of compounds I-IV) in capsules, relative to the amount of tasquinimod ([1]; 0.25 mg capsules of Example 19, 9 months): 0.12 % w/w; amount of decomposition product (each of compounds I-IV) in capsules, relative to the amount of tasquinimod ([1]; 0.25 mg capsules of Example 19, 12 months): 0.11 % w/w; Decomposition products (% w/w), relative to the amount of tasquinimod in capsule ([2]; 0.5 mg capsules of Example 28): <0.05 % w/w; Decomposition products (% w/w), relative to the amount of tasquinimod in capsule ([2]; 1.0 mg capsules of Example 29): <0.05 % w/w; change of the amount of the compound in tasquinimod drug product on storage [3]: increase under any storage conditions
